Entries after “also recorded” stand apart in the source; their conditions may differ. Read-outs that look alike come from different tables or passages of the source.
T1: cleaved, non-shed MUC1-C (Homo sapiens, UniProt P15941)
T1 construct: expressed in transfected cells; host or cells: K562, Raji and RPMI8226 cells modified to express MUC1-C
T1 sequence (P15941 with tags, fused parts or gaps): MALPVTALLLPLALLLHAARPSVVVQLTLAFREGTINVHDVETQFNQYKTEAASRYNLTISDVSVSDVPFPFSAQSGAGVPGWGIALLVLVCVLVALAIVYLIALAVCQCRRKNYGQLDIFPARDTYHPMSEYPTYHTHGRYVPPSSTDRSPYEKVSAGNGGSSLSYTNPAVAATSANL

B1: K2B-HL: MUC1 scFv CAR; single chain antibody SEQ ID NO: 10 (protein)
scFv: QVQLKESGPGLVAPSQSLSMTCTVSGFSLTTYGVHWVRQPPGKGLEWLVVIWSDGSTTYNSPLKSRLSISRDNSKSQVFLKMNSLQADDTAIYYCAKNYLGSLDYWGQGTSVTVSSGGGGSGGGGSGGGGSDVVLTQTPLSLPVSLGDQASISCRSSQSLVHNNGDTYLHWYLQKPGQSPKLLIYKVSNRFSGVPDRFSGSGSGTDFTFKISRVEAEDLGVYFCSQTTHVPLTFGAGTKLELK
modifications: left off: a dimerising Fc or GST
B2: F1C-HL: MUC1 scFv CAR; single chain antibody SEQ ID NO: 22 (protein)
scFv: QITLKESGPGILQPSQTLSLTCSFSGFSLSTSGMGVSWIRQPSGKGLEWLSHIYWDDDKRYNPSLKSRLSISKDTSRNQVFLKITSVDTADTATYYCAPGVSSWFPYWGPGTLVTVSAGGGGSGGGGSGGGGSSIVMTQTPKFLPVSAGDRVTVTCKASQSVGNYVAWYQQKPGQSPKLLIYFASNRYSGVPDRFTGSGSGTDFTFTISSVQVEDLAVYFCQQHYIFPYTFGSGTKLEIK
modifications: left off: a dimerising Fc or GST

Tests used:
cells [1] = test: AP1903 amount needed in vitro for effective signaling of cells; assay type: cell-based; settings: conversion with 1600 Da MW
Procedure: The fixed dose of AP1903 for injection used, for example, may be 0.4 mg/kg intravenously infused over 2 hours. The amount of AP1903 needed in vitro for effective signaling of cells is 10-100 nM (1600 Da MW). This equates to 16-160 μg/L or ^˜0.016-1.6 μg/kg (1.6-160 μg/kg). Doses up to 1 mg/kg were well-tolerated in the Phase I study of AP1903 described above. Therefore, 0.4 mg/kg may be a safe and effective dose of AP1903 for this Phase I study in combination with the therapeutic cells.

Human pan T-cells = test: iC9 safety switch test: modified T cells incubated 24 hours with AP1903, viability by 7-AAD flow cytometry; assay type: cell-based; settings: 24 hours incubation, 0-1000 nM tested
Description: FIG. 7 is a series of flow cytometry plots depicting the abundance of cells moving from an area of live cells (the gated lower right quadrant) to an area populated by apoptotic cells (the upper left quadrant) as a function of increasing dosage of the induction agent (AP1903) in cells modified to express a therapeutic agent (a CARTyrin) alone or in combination with an inducible caspase polypeptide of the disclosure (encoded by an iC9 construct (also known as a “safety switch”) introduced into cells by a piggyBac (PB) transposase) at day 12 post nucleofection. […]
FIG. 9 is a pair of graphs depicting a quantification of the aggregated results shown either in FIG. 7 (left graph) or FIG. 8 (right graph). […]
To test the iC9 safety switch, each of the four modified T cells were incubated for 24 hours with 0, 0.1 nM, 1 nM, 10 nM, 100 nM or 1000 nM AP1903 (an induction agent for […]). Viability was assessed by flow cytometry using 7-aminoactinomycin D (7-AAD), a fluorescent intercalator, as a marker for cells undergoing apoptosis.

cells [2] = settings: cited from earlier work
[3] = cited from earlier work
full length MUC1 = molecular target: T2, full length MUC1 (Homo sapiens, UniProt P15941); test: MUC1-scFv CAR function/epitope assay (degranulation, CD107a+ cells); assay type: cell-based; settings: cells expressing full-length MUC1
T2 construct: expressed in transfected cells; host or cells: K562, Raji and RPMI8226 cells
Procedure: (§1) FIG. 14 is a graph depicting a MUC1-scFv CAR function assay. […] MUC1-scFv function is measured by the extent of degranulation of the cells in each condition contacted with the MUC1-scFv along the X-axis. Degranulation was measured as the percentage of total cells that were CD107a-positive (CD107a+).
(§2) The results of a functional assay are provided in the graph wherein MUC1-C scFv-CAR function was measured by the extent of degranulation of the cells in each condition contacted with the MUC1-scFv along the X-axis. Degranulation was measured as the percentage of total cells that were CD107a-positive (CD107a+). The chart summarizes the relative activity of each MUC1-C scFv-CAR during the functional assay.
(§3) The function of each of the MUC1-scFv CARs described in this example was assayed in K562 cells, Raji cells and RPMI8226 cells (“8226”) cells in either unmodified conditions or following transfection with MUC1 constructs (either full-length or MUC1-C) to generate modified K562 cells, modified Raji cells and modified 8226 cells. Function of each of the MUC1-scFv CARs was measured by the CAR's ability to degranulate each cell type. Degranulation was measured by the percent of total cells that express […] (percentage of […] cells).
(§4) The F1C-HL, M1A-LH and K2B-HL MUC1-scFv CARs were further tested to determine epitope binding.

cleaved, non-shed MUC1-C = molecular target: T1, cleaved, non-shed MUC1-C; test: as above; assay type: cell-based; settings: cells that received the extracellular MUC1-C construct
Procedure: as §1, §2, §3, §4

unmodified cells = test: as above; assay type: cell-based, human
Procedure: as §3, §4

[4] = system: MUC1 expressed on activated T cells; test: as above; assay type: cell-based, human
Procedure: as §2
As an initial study, MUC1 expression was assessed in different cell types (see FIG. 13). Cells included in this study: K562 cells (immortalized human chronic myelogenous leukemia cells), Raji cells (human hematopoietic cell line used as a model of cancer), Raji cells modified to express MUC1-C, activated T cells and RPMI8226 cells (human peripheral blood B cell plasmacytoma/myeloma cell line). MUC1 expression in each of these cells was assessed by staining with an anti-MUC1-N antibody.

T2 sequence (P15941 24-1255): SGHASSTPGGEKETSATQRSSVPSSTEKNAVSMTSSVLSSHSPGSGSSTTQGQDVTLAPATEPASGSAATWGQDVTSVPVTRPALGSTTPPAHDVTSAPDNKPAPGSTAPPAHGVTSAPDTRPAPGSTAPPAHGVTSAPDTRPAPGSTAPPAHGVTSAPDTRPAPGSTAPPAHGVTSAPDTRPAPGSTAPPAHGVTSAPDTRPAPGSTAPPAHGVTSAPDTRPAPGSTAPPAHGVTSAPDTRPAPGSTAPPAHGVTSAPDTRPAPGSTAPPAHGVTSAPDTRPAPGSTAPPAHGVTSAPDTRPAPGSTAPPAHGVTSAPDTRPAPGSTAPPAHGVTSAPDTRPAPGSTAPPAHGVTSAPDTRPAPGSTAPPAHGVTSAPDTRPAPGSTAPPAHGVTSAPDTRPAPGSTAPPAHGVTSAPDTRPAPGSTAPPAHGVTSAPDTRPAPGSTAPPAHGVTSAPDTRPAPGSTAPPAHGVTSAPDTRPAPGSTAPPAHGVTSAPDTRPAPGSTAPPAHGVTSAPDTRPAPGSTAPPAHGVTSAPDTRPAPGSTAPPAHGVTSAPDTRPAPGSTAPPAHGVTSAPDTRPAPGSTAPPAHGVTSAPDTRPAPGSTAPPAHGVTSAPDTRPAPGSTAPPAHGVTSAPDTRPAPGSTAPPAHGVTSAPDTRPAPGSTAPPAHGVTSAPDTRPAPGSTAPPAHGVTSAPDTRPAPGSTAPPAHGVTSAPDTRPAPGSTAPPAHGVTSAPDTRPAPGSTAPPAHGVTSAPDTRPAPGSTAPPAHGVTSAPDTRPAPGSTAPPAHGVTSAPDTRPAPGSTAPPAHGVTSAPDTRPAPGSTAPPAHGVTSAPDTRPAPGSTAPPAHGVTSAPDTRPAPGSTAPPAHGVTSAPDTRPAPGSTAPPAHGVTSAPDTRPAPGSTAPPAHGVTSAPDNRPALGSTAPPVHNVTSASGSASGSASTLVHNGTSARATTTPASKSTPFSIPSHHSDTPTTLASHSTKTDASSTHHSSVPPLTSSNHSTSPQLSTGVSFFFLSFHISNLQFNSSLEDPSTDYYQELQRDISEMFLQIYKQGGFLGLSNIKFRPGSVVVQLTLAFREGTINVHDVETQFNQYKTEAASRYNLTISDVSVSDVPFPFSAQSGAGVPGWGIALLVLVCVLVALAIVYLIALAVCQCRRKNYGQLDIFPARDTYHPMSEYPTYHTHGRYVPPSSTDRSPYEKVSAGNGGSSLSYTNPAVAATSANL

Row | Molecule | amount needed for effective signaling of cells, converted (cells [1]) [µg/L] | amount needed for effective signaling of cells, converted to dose (cells [1]) [µg/kg] | concentration at which AP1903 induces apoptosis (lowest of the study) (Human pan T-cells) [nM] | amount needed in vitro for effective signaling of cells (cells [2]) [nM] | AP1903 plasma levels versus dose ([3]; 0.01-1.0 mg/kg dose range) | plasma levels as % of maximal concentration ([3]; 0.5 hours post-dose) | plasma levels as % of maximal concentration ([3]; 2 hours post-dose) [%] | plasma levels as % of maximal concentration ([3]; 10 hours post-dose) [%] | well-tolerated doses ([3]; Phase I study of AP1903) | mean Cmax ([3]; single doses 0.01-1.0 mg/kg infused IV over 2 hours, 24 healthy volunteers, plasma) [ng/mL] | CAR reactivity / binding (degranulation) (full length MUC1) | CAR reactivity / binding (degranulation) (cleaved, non-shed MUC1-C) | CAR binding (degranulation) (unmodified cells) | CAR reactivity (degranulation) [4]
1 | CC[C@H](C(=O)N1CCCC[C@H]1C(=O)O[C@H](CCc1ccc(OC)c(OC)c1)c1cccc(OCC(=O)NCCNC(=O)COc2cccc([C@@H](CCc3ccc(OC)c(OC)c3)OC(=O)[C@@H]3CCCCN3C(=O)[C@@H](CC)c3cc(OC)c(OC)c(OC)c3)c2)c1)c1cc(OC)c(OC)c(OC)c1 (relative stereo) [AP1903, 2-Piperidinecarboxylic acid, 1-[(2S)-1-oxo-2-(3,4,5-trimethoxyphenyl)butyl]−, 1,2-ethanediylbis[imino(2-oxo-2,1-ethanediyl)oxy-3,1-phenylene[(1R)-3-(3,4-dimethoxyphenyl)propylidene]]ester, [2S-[1(R*),2R*[S*[S*[1 (R*),2R*]]]]]-(9C1)] | 16 to 160 | 0.016 to 1.6 | ≤ 0.1 | 10 to 100 | directly proportional to dose | approximately 18% | ~7 | ~1 | up to 1 mg/kg | 10 to 1275 | – | – | – | –
2 | B1 | – | – | – | – | – | – | – | – | – | – | not full length MUC1 | only reacts against cleaved, non-shed MUC1-C; also recorded: specifically binds | – | –
3 | B2 | – | – | – | – | – | – | – | – | – | – | reacts against full length MUC1; also recorded: binds | binds | binds | including that expressed on activated T cells

From patent US20190328784A1, “CHIMERIC ANTIGEN RECEPTORS (CARS) SPECIFIC FOR MUC1 AND METHODS FOR THEIR USE” (Poseida Therapeutics, Inc., priority 2016, published 2019)
